The values below come from patent US9241958B2, “Anticoagulant antagonist and hemophilia procoagulant” (The Board of Trustees of the University of Illinois, priority 2007, dated 2016).

The conditions of data set [1]: cited from earlier work.
A further data set has as its system fresh whole blood. Put plainly: Whole blood thromboelastometry (ROTEM), clotting initiated with dilute thromboplastin. Format: biochemical, human. As for the experimental part:
Thromboelastography was carried out using the ROTEM® four channel system (Pentapharm, Munich, Germany) using the supplied software package. Fresh, non-anticoagulated whole blood was collected via atraumatic venipuncture using a two-syringe technique. The initial 3 ml of blood was discarded and the blood sample to be used was then drawn into a 3 ml plain plastic syringe. The blood was immediately transferred to the supplied disposable plastic cups (280 μL per cup) and thoroughly mixed with 20 μL buffer (TBS: 50 mM Tris-HCl pH 7.4, 150 mM NaCl, 0.02% NaN3) or additives in TBS. Each fresh whole blood sample was divided into 4 cups containing the following: TBS only (control), polyP75, anticoagulant drug only, or both polyP75 and anticoagulant drug. Clotting was then initiated immediately via addition of 20 μL of tissue factor containing clotting reagent (INNOVIN® diluted in TBS). Thromboelastography measurement was initiated within 120 seconds of blood drawing for all samples. The final concentrations in the reaction were 87.5% whole blood, INNOVIN® diluted 1:17,000, 0 or 100 μM polyP, 0 or added anticoagulant drug (0.1 U/mL unfractionated heparin or 2.7 μg/mL enoxaparin or 1 μg/mL argatroban, or 0.2 μg/mL rivaroxaban). The measurements were continued for 2 hours and the clot time (CT), clot formation time (CFT), alpha angle (α angle), and maximum clot firmness (MCF) were recorded as supplied by the ROTEM® software. Each anticoagulant drug was added in vitro to whole blood from 5 different individuals.
(§1) Statistical analyses were performed using SigmaStat statistical software version 2.03 (SPSS, Inc). In all cases, two-tailed t-tests were conducted at the 0.05 level of significance. Clot times obtained using the Dilute PT Test with and without added polyP in plasma-based experiments were compared using unpaired t-tests. Results for each variable obtained from the ROTEM® experiments (CT, CFT, a angle, MCF) were compared separately. For each group of anticoagulants, parameters obtained for control blood samples were compared to those for blood+polyP, blood+anticoagulant, and blood+anticoagulant+polyP. The latter two samples were also directly compared. To account for inter-individual variation, thromboelstography parameters were compared using paired t-tests.

In the next data set the target is T1, fibrinogen (Homo sapiens, UniProt P02671+P02675+P02679).
T1 sequence (P02671 20-644 isoform P02671-2 limits assumed): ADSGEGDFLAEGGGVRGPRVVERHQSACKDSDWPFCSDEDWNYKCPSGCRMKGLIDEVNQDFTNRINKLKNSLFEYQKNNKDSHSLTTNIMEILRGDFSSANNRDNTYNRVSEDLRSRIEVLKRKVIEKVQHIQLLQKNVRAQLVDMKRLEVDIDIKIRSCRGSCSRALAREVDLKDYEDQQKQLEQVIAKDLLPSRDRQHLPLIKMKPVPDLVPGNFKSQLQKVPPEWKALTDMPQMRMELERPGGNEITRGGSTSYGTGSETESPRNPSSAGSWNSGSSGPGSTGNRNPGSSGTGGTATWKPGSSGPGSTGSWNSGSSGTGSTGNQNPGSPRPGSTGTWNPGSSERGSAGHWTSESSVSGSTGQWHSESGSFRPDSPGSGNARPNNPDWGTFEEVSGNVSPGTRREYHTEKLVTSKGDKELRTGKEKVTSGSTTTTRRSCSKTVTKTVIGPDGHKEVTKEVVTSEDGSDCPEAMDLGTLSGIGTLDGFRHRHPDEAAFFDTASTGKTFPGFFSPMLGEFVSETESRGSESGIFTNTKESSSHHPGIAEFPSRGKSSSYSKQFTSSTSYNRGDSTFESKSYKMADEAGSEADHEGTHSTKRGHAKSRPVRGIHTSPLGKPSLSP
T1 sequence (P02675 31-491): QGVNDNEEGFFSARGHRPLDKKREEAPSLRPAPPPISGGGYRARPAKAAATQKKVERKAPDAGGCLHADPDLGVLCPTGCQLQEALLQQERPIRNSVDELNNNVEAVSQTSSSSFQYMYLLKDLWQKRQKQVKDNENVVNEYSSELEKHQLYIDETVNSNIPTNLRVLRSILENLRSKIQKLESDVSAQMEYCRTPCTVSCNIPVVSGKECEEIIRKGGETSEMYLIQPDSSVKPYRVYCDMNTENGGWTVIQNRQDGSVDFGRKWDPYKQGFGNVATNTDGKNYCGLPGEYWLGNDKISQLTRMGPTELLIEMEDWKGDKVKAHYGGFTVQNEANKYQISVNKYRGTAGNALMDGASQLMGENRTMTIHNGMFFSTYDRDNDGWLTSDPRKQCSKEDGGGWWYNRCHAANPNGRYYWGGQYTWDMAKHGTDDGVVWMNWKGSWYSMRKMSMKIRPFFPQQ
T1 sequence (P02679 27-437 isoform P02679-2 limits assumed): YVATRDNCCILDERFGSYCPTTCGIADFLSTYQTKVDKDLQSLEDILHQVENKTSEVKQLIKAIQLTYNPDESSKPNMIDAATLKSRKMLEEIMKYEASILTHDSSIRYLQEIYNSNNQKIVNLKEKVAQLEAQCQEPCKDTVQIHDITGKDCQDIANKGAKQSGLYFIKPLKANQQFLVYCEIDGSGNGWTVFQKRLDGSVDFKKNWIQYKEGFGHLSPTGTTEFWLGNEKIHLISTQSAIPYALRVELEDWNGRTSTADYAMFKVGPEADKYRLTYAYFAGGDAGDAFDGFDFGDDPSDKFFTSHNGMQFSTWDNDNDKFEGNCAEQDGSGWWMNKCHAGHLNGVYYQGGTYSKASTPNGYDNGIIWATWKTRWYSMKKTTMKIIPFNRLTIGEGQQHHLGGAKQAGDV
Put plainly: Clot structure of thrombin cleaved fibrinogen. Format: biochemical.

The subject of data set [2] is plasma from patients receiving COUMADIN®. The data set can be described thus: Dilute PT Test, plasma clot time, patients receiving COUMADIN
The format is biochemical, human. As to conditions: 7 patients, INR 1.7 to 4.8; polyP75 added in vitro. As for the experimental part: (§2) The following describes the use of the Dilute PT Test to evaluate the effectiveness of polyP in treat hemophilia and reversing the effects of anticoagulant drugs. Anticoagulant drugs were added to pooled normal plasma in vitro at concentrations of up 1 U/mL for unfractionated heparin, 100 μg/mL for enoxaparin, 3 μg/mL for argatroban, and 1 μg/mL for rivaroxaban. Plasma from a patient deficient in FVIII was evaluated with and without the addition of up to 0.5 μg/mL FVIII or 20 nM FVIIa. Plasma from a patient deficient in FIX was evaluated with and without the addition of up to 4 μg/mL FIX or 20 nM FVIIa. INR values for samples from patients receiving COUMADIN® ranged from 1.7 to 4.8.
Plasma clots were formed in 96-well medium binding polystyrene microplates (Corning Inc., Corning, N.Y.). Plasma (80 μL) was added to the well and clotting was initiated by addition of 160 uL of clotting reagent. […]
Clotting was evaluated by monitoring the change in turbidity (A405) for 1 hour at room temperature using Softmax software and a Spectramax microplate reader (Molecular Devices Corporation, Sunnyvale, Calif.). […]

Data set [3] deals with plasma from patients with hemophilia A (FVIII<1%). Put plainly: Dilute PT Test, plasma clot time, hemophilia A patients. The format is biochemical, human. As to the method: as §2
(§3) Plasma clots were formed in 96-well medium binding polystyrene microplates (Corning Inc., Corning, N.Y.). Plasma (80 μL) was added to the well and clotting was initiated by addition of 160 uL of clotting reagent. The clotting reagent consisted of RecombiPlasTin (as a source of tissue factor) diluted 200 fold (for normal and anticoagulated plasmas) or 8000 fold (for hemophilia plasmas) into buffer containing 100 μM phospholipid vesicles (20% phosphatidylserine and 80% phosphatidylcholine made by sonication), 12.5 mM CaCl2, 25 mM Tris HCl pH 7.4, 0.1% bovine serum albumin, and 150 mM NaCl. Clotting reagent was divided into reagent without added polyP and reagent with added 100 μM polyP75.
(§4) Clotting was evaluated by monitoring the change in turbidity (A405) for 1 hour at room temperature using Softmax software and a Spectramax microplate reader (Molecular Devices Corporation, Sunnyvale, Calif.). […] All assays were repeated 5 times.
as §1

The target in the next data set is thrombin (Homo sapiens, UniProt P00734). The data set can be described thus: Studies with purified proteins: inactivation of thrombin by antithrombin. The format is biochemical.
A further data set has as its target factor V (Homo sapiens, UniProt P12259). Put plainly: Studies with purified proteins: activation of factor V. The format is biochemical.
The test system of data set [4] is plasma from patients with hemophilia B (FIX<1%). Put plainly: Dilute PT Test, plasma clot time, hemophilia B patients. Format: biochemical, human. As to the method: as §2, §3, §4, §1
In a further data set the test system is pooled normal plasma. Put plainly: Dilute PT Test, plasma clot time, anticoagulants added in vitro. The format is biochemical, human. As to the method: as §2, §3, §4, §1
[5] abbreviates: +Anticoagulant alone (0.1 U/mL unfractionated heparin, 2.7 μg/mL enoxaparin, 1 μg/mL argatroban or 0.2 μg/mL rivaroxaban).
The mark [6] stands for this setting: +100 μM polyP, no anticoagulant, blood samples of the argatroban series.
Where [7] appears, read: +100 μM polyP, no anticoagulant, blood samples of the enoxaparin series.
Setting [8] is: +100 μM polyP, no anticoagulant, blood samples of the rivaroxaban series.
Where [9] appears, read: +100 μM polyP, no anticoagulant, blood samples of the unfractionated heparin series.
The mark [10] stands for this setting: +Anticoagulant + polyP: 0.2 μg/mL rivaroxaban + 100 μM polyP.
Setting [11] is: +Anticoagulant + polyP: 1 μg/mL argatroban + 100 μM polyP.
Setting [12] is: +Anticoagulant + polyP: 2.7 μg/mL enoxaparin + 100 μM polyP.
Where [13] appears, read: +Anticoagulant + polyP: 0.1 U/mL unfractionated heparin + 100 μM polyP.

factor V, sequence (P12259 29-2224): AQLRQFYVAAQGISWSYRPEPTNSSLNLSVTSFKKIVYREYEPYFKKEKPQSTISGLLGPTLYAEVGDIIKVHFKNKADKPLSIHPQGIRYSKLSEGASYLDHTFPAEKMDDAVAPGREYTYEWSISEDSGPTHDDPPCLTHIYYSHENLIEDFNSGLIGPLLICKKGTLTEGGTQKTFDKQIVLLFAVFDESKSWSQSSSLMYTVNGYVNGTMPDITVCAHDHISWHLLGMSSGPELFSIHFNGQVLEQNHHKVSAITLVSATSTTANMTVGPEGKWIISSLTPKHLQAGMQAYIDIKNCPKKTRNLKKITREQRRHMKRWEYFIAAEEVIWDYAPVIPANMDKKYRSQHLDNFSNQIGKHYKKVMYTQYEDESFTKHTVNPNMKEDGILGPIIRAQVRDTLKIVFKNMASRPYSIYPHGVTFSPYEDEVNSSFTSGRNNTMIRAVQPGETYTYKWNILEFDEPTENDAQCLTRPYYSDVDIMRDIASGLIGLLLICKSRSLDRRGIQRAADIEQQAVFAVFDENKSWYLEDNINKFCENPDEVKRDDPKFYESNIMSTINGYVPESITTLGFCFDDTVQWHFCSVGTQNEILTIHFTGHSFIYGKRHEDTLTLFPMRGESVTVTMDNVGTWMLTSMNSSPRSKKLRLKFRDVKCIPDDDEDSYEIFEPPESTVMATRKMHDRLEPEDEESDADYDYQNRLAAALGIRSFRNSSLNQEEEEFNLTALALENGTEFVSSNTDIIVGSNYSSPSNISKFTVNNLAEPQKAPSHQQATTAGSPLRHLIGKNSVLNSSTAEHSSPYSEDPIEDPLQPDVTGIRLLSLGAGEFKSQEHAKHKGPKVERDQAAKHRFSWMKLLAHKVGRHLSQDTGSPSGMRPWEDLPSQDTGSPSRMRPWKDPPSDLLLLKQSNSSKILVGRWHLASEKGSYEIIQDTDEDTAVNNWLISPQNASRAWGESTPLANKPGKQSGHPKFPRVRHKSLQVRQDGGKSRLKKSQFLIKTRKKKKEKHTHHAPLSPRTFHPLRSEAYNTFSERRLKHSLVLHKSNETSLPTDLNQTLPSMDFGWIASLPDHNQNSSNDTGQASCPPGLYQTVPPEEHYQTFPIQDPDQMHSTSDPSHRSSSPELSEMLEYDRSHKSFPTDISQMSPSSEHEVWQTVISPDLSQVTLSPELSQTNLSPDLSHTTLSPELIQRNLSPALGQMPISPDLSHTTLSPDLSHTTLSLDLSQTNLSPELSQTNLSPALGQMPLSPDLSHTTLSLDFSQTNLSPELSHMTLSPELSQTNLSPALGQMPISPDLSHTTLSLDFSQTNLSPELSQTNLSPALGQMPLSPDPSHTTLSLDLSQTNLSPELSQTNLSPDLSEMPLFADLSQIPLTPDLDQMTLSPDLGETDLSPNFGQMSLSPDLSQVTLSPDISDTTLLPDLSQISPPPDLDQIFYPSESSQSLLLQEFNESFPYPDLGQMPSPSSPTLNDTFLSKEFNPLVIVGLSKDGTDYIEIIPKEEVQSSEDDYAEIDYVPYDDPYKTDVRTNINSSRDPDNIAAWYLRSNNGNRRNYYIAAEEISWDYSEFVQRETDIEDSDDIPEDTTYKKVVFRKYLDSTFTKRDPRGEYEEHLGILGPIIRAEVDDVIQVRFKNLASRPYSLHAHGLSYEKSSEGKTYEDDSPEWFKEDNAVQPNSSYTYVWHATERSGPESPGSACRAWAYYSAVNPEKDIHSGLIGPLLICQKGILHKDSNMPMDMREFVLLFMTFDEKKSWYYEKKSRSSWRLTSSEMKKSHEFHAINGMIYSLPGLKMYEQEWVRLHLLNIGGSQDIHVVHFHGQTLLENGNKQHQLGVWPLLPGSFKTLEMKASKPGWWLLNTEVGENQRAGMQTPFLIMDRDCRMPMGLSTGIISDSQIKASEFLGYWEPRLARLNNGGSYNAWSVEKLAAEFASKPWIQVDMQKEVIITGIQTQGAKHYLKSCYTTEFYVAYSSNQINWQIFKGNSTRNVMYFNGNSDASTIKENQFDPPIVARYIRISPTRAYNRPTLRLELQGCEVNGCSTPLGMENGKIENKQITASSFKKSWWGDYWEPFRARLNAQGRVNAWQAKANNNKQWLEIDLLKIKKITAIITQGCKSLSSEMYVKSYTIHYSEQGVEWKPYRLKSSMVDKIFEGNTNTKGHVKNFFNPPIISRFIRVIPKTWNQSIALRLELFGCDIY

`CC1CNc2c(cccc2S(=O)(=O)N[C@@H](CCCNC(=N)N)C(=O)N2CC[C@@H](C)C[C@@H]2C(=O)O)C1` (some centres unmarked) [Argatroban, reference compound]: in [1] (human, in vivo), the therapeutic plasma concentration entry is “about 1 μg/ml”. Besides, in the data set on fresh whole blood (setting [5]), the MCF worked out at 49.4 mm and the α angle was found to be 38.8 °.
As for `O=C(NC[C@H]1CN(c2ccc(N3CCOCC3=O)cc2)C(=O)O1)c1ccc(Cl)s1` [Rivaroxaban, reference compound], the plasma half-life in data set [1] (in a patient) was 7 to 10 h. Further, in the data set with fresh whole blood (setting [5]), the MCF is recorded as 54.8 mm and the α angle came to 47.6 °.
For Polyphosphate, the “effect on fibrin clot structure” value at fibrinogen is on record as “thicker fibrin fibers that are more resistant to fibrinolysis”. For the same compound, the “effect on plasma clot time” value in data set [2] is listed as “shortened, but did not completely normalize”; in [3] (5 patients with severe hemophilia A, polyP75 added in vitro), “decreased the plasma clot time”; in data set [4] (4 patients with severe hemophilia B, polyP75 added in vitro), “decreased the plasma clot time”. The “shortening of plasma clot time compared with factor replacement” value in data set [3] (FVIII deficiency, polyP alone vs FVIII restored to normal plasma concentration) was “greater degree than did restoring the missing clotting factor”; in data set [4] (FIX deficiency, polyP alone vs FIX restored to normal plasma concentration), “greater degree than did restoring the missing clotting factor”. Moreover, the “procoagulant effect in combination with rFVIIa” value was “additive” in [3] (FVIII-deficient plasma, all rFVIIa concentrations evaluated) and “additive” in [4] (FIX-deficient plasma, all rFVIIa concentrations evaluated). For the same compound, the “rFVIIa concentration giving similar shortening of plasma clot time” value in data set [3] (FVIII-deficient plasma, polyP alone) is roughly 15 nM; in [4] (FIX-deficient plasma, polyP alone) it was roughly 6 nM. Also, the “clotting of patient plasma with polyP compared with pooled normal plasma” value in [3] (severe hemophilia A plasma in the presence of polyP) and in data set [4] (severe hemophilia B plasma in the presence of polyP) was “clotted more rapidly than did pooled normal plasma without polyP” in each case. Further, the “effect on ability of antithrombin to inactivate thrombin” value on thrombin is recorded as “neither enhanced nor blocked”. Moreover, the “effect on ability of heparin to accelerate inactivation of thrombin by antithrombin” value at thrombin was “did not enhance or block”. In addition, on factor V, the “effect on activation of factor V by thrombin or factor Xa” value is listed as “accelerate the activation of factor V”. For the same compound, the MCF is 62.2 mm in the data set on fresh whole blood (setting [6]); 64.8 mm in the data set on fresh whole blood (setting [7]); 64.0 mm in the data set with fresh whole blood (setting [8]); 63.0 mm with fresh whole blood (setting [9]); 63.6 mm in the data set on fresh whole blood (setting [10]); 59.4 mm in the data set on fresh whole blood (setting [11]). Further, the MCF is recorded as 59.8 mm with fresh whole blood (setting [12]) and 52.4 mm in the data set on fresh whole blood (setting [13]). In addition, the α angle with fresh whole blood (setting [6]) is on record as 69.0 °; in the data set with fresh whole blood (setting [7]) it was 71.0 °; in the data set with fresh whole blood (setting [8]), 70.0 °; in the data set with fresh whole blood (setting [9]), 69.6 °; in the data set on fresh whole blood (setting [10]), 67.4 °; in the data set with fresh whole blood (setting [11]) it was 56.4 °. Besides, the α angle came to 60.4 ° with fresh whole blood (setting [12]) and 46.8 ° in the data set on fresh whole blood (setting [13]). For the same compound, the “effect of polyP on CT, in words” value in the data set with fresh whole blood (blood containing argatroban) is on record as “shortened but did not entirely normalize”; in the data set on fresh whole blood (blood containing unfractionated heparin), “shortened, but did not completely normalize”. For the same compound, the “effect of polyP on thromboelastography parameters, in words” value in the data set with fresh whole blood (blood containing enoxaparin) was “normalized all parameters”. Besides, in the data set with fresh whole blood (blood containing rivaroxaban), the “effect of polyP on thromboelastography curve, in words” value is “complete reversal of anticoagulation”. The “reversal of the effective dose of heparins” value in the data set with pooled normal plasma (both types of heparin, decreased slope of the dose-response curve, 67 μM polyP75) was “approximately 50%”. For the same compound, the “shortening of clot time by polyP” value is reported as “approximately 50%” with pooled normal plasma (plasma with low molecular weight heparin (enoxaparin), all concentrations evaluated (20-100 μg/mL), 67 μM polyP75); “approximately 80%” in the data set with pooled normal plasma (plasma with rivaroxaban, all concentrations tested (0.2-1 μg/mL), 67 μM polyP75); “approximately 50%” in the data set with pooled normal plasma (plasma with unfractionated heparin, all concentrations evaluated (0.2-1 U/mL), 67 μM polyP75). The “argatroban level giving equivalent prolongation of clot time” value in the data set with pooled normal plasma (plasma with supratherapeutic argatroban (1-3 μg/ml) + polyP) is reported as “less than 0.5 μg/ml”. For the same compound, the “effect on anticoagulant effect of drugs added in vitro to normal plasma” value with pooled normal plasma (unfractionated heparin, enoxaparin, argatroban, rivaroxaban, 67 μM polyP75) is given as “antagonized the anticoagulant effect of all four drugs”.
